Measured values reported in US5332726A, “Antithrombotic peptides and pseudopeptides” (Rhone-Poulenc Rorer Pharmaceuticals Inc., priority 1992, dated 1994).
pIC50: −log10 of the molar value. Non-standard residues stand in square brackets, D forms with d. Residues, ends and D or L forms follow the SMILES beside them. Ahx = NCCCCCC(=O)O; NEtG = CCNCC(=O)O

How the values were obtained:
[1] = biological target: thrombin-stimulated platelets (Homo sapiens, UniProt P05106+P08514); assay: Fibrinogen-Binding Assay (125I-fibrinogen binding to platelets); conditions: 125I-fibrinogen 0.176 μmol/liter, thrombin-stimulated platelets; read-out: Inhibition of 125I-Fibrinogen Binding to Platelets IC50
Method: Platelets are washed free of plasma constituents by the albumin density-gradient technique of Walsh, P. N., et al., Br. J. Haematol. […] After these additions, the final platelet count in the mixture is 1×10^11 /liter. After incubation for an additional 30 minutes at 22°-25° C., bound and free ligand are separated by centrifuging 50 μl of the mixture through 300 μl of 20% sucrose at 12,000×g for 4 minutes. The platelet pellet is then separated from the rest of the mixture to determine platelet-bound radioactivity. Nonspecific binding is measured in mixtures containing an excess of unlabeled ligand. […] The IC50 is derived by plotting residual fibrinogen binding against the logarithm of the sample compound's concentration.

[2] = biological target: fixed activated platelets (Homo sapiens, UniProt P05106+P08514); assay: Platelet Aggregation Assay (fibrinogen-mediated aggregation of fixed-activated platelets); format: cell-based; conditions: for pIC50: fixed activated platelets, human fibrinogen 250 μg/ml, read-out: Inhibition of Fibrinogen Mediated Platelet Aggregation IC50; for inhibition at 25 µM: read-out: Inhibition of Fibrinogen Mediated Platelet Aggregation % inhibition at 25 μM
Method: PLATELET AGGREGATION ASSAY
Preparation of Fixed-Activated Platelets
To the activated platelets is added paraformaldehyde to a final concentration of 0.50% and this incubated at room temperature for 30 minutes. The fixed activated platelets are then collected by centrifugation at 650×g for 15 minutes.
Platelet Aggregation Assay
The fixed activated platelets are incubated with a selected dose of the compound to be tested for platelet aggregation inhibition for one minute and aggregation initiated by addition of human fibrinogen to a final concentration of 250 μg/ml. A platelet aggregation profiler Model PAP-4 is used to record the platelet aggregation.

Chain of fixed activated platelets (P08514 32-1039): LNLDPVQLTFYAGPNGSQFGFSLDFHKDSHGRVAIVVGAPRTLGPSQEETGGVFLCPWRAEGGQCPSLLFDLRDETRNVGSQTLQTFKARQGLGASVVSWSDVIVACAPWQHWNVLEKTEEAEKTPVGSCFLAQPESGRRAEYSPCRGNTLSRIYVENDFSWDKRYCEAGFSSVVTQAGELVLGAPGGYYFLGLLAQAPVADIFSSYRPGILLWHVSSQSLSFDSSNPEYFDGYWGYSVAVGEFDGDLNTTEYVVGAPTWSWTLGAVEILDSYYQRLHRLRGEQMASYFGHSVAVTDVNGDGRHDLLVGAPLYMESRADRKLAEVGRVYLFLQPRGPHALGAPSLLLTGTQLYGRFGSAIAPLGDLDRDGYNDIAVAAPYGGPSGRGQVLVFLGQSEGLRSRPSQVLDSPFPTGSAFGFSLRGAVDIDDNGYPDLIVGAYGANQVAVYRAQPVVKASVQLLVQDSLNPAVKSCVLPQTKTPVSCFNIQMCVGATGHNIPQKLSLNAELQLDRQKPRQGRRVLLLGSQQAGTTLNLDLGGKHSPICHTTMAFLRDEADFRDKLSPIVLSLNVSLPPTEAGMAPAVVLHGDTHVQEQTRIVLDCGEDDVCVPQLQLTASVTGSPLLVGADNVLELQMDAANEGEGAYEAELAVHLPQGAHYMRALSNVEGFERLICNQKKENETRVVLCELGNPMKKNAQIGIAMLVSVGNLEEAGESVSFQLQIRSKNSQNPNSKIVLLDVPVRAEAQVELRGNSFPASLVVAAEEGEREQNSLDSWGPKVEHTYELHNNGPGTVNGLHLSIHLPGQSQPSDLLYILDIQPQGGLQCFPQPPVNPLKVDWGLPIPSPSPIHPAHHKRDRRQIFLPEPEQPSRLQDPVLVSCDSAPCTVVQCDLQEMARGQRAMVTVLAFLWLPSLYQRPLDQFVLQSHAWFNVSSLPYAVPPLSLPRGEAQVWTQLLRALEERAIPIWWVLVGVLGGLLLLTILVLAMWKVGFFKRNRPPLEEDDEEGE
Chain of fixed activated platelets (P05106 27-788): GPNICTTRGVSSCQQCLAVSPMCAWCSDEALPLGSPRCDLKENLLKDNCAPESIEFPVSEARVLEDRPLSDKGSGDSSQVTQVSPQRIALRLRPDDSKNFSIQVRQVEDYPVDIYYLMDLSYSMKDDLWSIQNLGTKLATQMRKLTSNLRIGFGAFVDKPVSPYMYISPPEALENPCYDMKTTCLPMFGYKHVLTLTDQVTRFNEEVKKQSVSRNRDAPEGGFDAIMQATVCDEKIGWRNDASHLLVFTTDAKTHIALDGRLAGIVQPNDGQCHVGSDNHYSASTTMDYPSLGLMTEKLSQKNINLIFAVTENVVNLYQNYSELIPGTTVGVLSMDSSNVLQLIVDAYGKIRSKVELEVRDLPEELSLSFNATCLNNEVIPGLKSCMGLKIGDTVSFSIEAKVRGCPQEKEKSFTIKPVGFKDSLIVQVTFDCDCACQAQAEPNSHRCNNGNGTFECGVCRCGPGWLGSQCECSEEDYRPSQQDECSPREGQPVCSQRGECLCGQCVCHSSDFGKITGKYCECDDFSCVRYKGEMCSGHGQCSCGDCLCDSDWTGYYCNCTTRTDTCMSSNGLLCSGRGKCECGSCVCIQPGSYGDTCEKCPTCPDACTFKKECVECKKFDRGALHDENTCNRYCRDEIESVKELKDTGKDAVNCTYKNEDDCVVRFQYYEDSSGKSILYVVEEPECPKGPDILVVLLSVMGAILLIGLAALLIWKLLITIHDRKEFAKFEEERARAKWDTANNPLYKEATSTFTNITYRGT
Chain of thrombin-stimulated platelets (P08514 32-1039): as the sequence (P08514 32-1039) above
Chain of thrombin-stimulated platelets (P05106 27-788): as the sequence (P05106 27-788) above

| pIC50 [1] | pIC50 [2] | inhibition at 25 µM [2] [%] | Compound |
| --- | --- | --- | --- |
| 6.06 | 5.24 | 76 | CC(C)[C@H](NC(=O)[C@H](CC(=O)O)NC(=O)CN(C(=O)CCCCCNC(=N)N)C1CCCC1)C(=O)O [6-Guanidinohexanoyl-N-cyclopentylglycine-L-aspartyl-L-valine] |
| 5.30 | 4.94 | 73 | CCN(CC(=O)N[C@@H](CC(=O)O)C(=O)NC(CC)(CC)C(=O)O)C(=O)CCCCCNC(=N)N [6-Guanidinohexanoyl-N-ethyl-glycyl-L-aspartyl-2,2-diethylglycine] |
| 6.92 | 6.42 | 96 | CCN(CC(=O)N[C@@H](CC(=O)O)C(=O)N[C@H](C(=O)O)C(C)C)C(=O)CCCCCNC(=N)N [6-Guanidinohexanoyl-N-ethylglycine-L-aspartyl-L-valine] |
| 6.62 | 5.85 | 97 | CCN(CC(=O)N[C@@H](CC(=O)O)C(=O)N[C@@H](CCCNC(=N)N)C(=O)O)C(=O)CCCCCNC(=N)N [6-Guanidinohexanoyl-N-ethylglycyl-L-aspartyl-L-arginine] |
| 7.30 | 6.25 | 96 | CC[C@H](C)[C@H](NC(=O)[C@H](CC(=O)O)NC(=O)CN(CC)C(=O)CCCCCNC(=N)N)C(=O)O [6-Guanidinohexanoyl-N-ethylglycyl-L-aspartyl-L-isoleucine] |
| 6.70 | 5.89 | 97 | CCN(CC(=O)N[C@@H](CC(=O)O)C(=O)N[C@@H](Cc1ccccc1)C(=O)O)C(=O)CCCCCNC(=N)N [6-Guanidinohexanoyl-N-ethylglycyl-L-aspartyl-L-phenylalanine] |
| 7.00 | 5.82 | 86 | CC(C)CN(CC(=O)N[C@@H](CC(=O)O)C(=O)N[C@H](C(=O)O)C(C)C)C(=O)CCCCCNC(=N)N [6-Guanidinohexanoyl-N-isobutylglycyl-L-aspartyl-L-valine] |
| 5.85 | 5.19 | 90 | CC(C)[C@H](NC(=O)[C@H](CC(=O)O)NC(=O)CNC(=O)CCCCCNC(=N)N)C(=O)O [6-Guanidinohexanoyl-glycyl-L-aspartyl-L-valine] |
| 6.28 | 5.68 | 97 | CN(CC(=O)N[C@@H](CC(=O)O)C(=O)N[C@@H](CCCNC(=N)N)C(=O)O)C(=O)CCCCCNC(=N)N [6-Guanidinohexanoyl-sarcosyl-L-aspartyl-L-arginine] |
| 6.47 | 5.39 | 86 | CN(CC(=O)N[C@@H](CC(=O)O)C(=O)N[C@@H](CCCCN)C(=O)O)C(=O)CCCCCNC(=N)N [6-Guanidinohexanoyl-sarcosyl-L-aspartyl-L-lysine] |
| 6.72 | 5.18 | 89 | CN(CC(=O)N[C@@H](CC(=O)O)C(=O)N[C@@H](Cc1c[nH]c2ccccc12)C(=O)O)C(=O)CCCCCNC(=N)N [6-Guanidinohexanoyl-sarcosyl-L-aspartyl-L-tryptophan] |
| 5.44 | 5.14 | 94 | CN(CC(=O)N[C@@H](CC(=O)O)C(=O)N[C@@H](Cc1ccc(O)cc1)C(=O)O)C(=O)CCCCCNC(=N)N [6-Guanidinohexanoyl-sarcosyl-L-aspartyl-L-tyrosine] |
| 5.27 | 6.25 | 95.5 | CCN(CC(=O)N[C@@H](CC(=O)O)C(=O)N[C@@H](CC(C)C)C(=O)O)C(=O)CCCCCNC(=N)N [6-guanidinohexanoyl-N-ethyl-glycyl-L-aspartyl-L-leucine] |

Further lines, the molecule ahead of its results:

| Compound | pIC50 [1] | pIC50 [2] | inhibition at 25 µM [2] [%] |
| --- | --- | --- | --- |
| CC(C)[C@H](NC(=O)[C@H](CC(=O)O)NC(=O)CNC(=O)CCCNC(=N)N)C(=O)O [4-Guanidinobutanoyl-glycyl-L-aspartyl-L-valine] | 5.00 | 4.66 | 43 |
| CC(C)[C@H](NC(=O)[C@H](CC(=O)O)NC(=O)CN(C)C(=O)CCCCn1ccnc1)C(=O)O [5-(Imidazol-1-yl)-pentanoyl-sarcosyl-L-aspartyl-L-valine] | 6.82 | 5.82 | 95 |
| CC(C)[C@H](NC(=O)[C@H](CC(=O)O)NC(=O)CNC(=O)CCCCn1ccnc1)C(=O)O [5-(Imidazol-1-yl)-valeroylglycyl-L-aspartyl-L-valine] | 5.90 | 4.69 | 58 |
| CCN(CC(=O)N[C@@H](CC(=O)O)C(=O)N[C@H](C(=O)O)C(C)C)C(=O)CCCCNC(=N)N [5-Guanidinopentanoyl-N-ethylglycyl-L-aspartyl-L-valine] | 7.40 | 6.20 | 91 |
| CC(C)[C@H](NC(=O)[C@H](CC(=O)O)NC(=O)CN(C)C(=O)CCCCNC(=N)N)C(=O)O [5-Guanidinovaleroyl-sarcosyl-L-aspartyl-L-valine] | 6.00 | 6.28 | 94 |
| CCN(CC(=O)N[C@@H](CC(=O)O)C(=O)N[C@@H](CCCNC(=N)N)C(=O)O)C(=O)CCCCNC(=N)N [5-guanidino-N-(ethyl)-glycyl-L-aspartyl-L-arginine] | 5.72 | 6.64 | 93 |
| CCN(CC(=O)N[C@@H](CC(=O)O)C(=O)N[C@@H](CC(C)C)C(=O)O)C(=O)CCCCNC(=N)N [5-guanidinopentanoyl-N-(ethyl)-glycyl-L-aspartyl-L-leucine] | 6.41 | 6.27 | 90 |
| CCc1nccn1CCCCCC(=O)N(C)CC(=O)N[C@@H](CC(=O)O)C(=O)N[C@H](C(=O)O)C(C)C [6-(2-Ethylimidazol-1-yl)hexanoyl-sarcosyl-L-aspartyl-L-valine] | 6.50 | 5.31 | 89 |
| CCN(CC(=O)N[C@@H](CC(=O)O)C(=O)N[C@H](C(=O)O)C(C)C)C(=O)CCCCCn1ccnc1C [6-(2-Methylimidazol-1-yl)hexanoyl-N-(ethyl)-glycyl-L-aspartyl-L-valine] | 6.46 | 5.72 | 93 |
| CC(C)[C@H](NC(=O)[C@H](CC(=O)O)NC(=O)CN(C)C(=O)CCCCCn1ccnc1-c1ccccc1)C(=O)O [6-(2-Phenylimidazol-1-yl)hexanoyl-sarcosyl-L-aspartyl-L-valine] | 6.42 | 5.25 | 84 |
| CCN(CC(=O)N[C@@H](CC(=O)O)C(=O)N[C@H](C(=O)O)C(C)C)C(=O)CCCCCn1ccnc1 [6-(Imidazol-1-yl)-hexanoyl-N-ethylglycyl-L-aspartyl-L-valine] | 6.05 | 6.00 | 95 |
| CC(C)[C@H](NC(=O)[C@H](CC(=O)O)NC(=O)CNC(=O)CCCCCn1ccnc1)C(=O)O [6-(Imidazol-1-yl)-hexanoyl-glycyl-L-aspartyl L-valine] | 5.55 | 4.77 | 67 |
| CCN(CC(=O)N[C@@H](CC(=O)O)C(=O)N[C@H](C(=O)O)C(C)C)C(=O)CCCCCN [6-Aminohexanoyl-N-ethylglycyl-L-aspartyl-L-valine] (H-[Ahx][NEtG]DV-OH) | 5.40 | 5.39 | 92 |
| CC(C)C[C@H](NC(=O)[C@H](CC(=O)O)NC(=O)CN(C)C(=O)CCCCCNC(=N)N)C(=O)O [6-Guanidinohexanoyl-L-sarcosyl-L-aspartyl-L-leucine] | 7.05 | 6.48 | 88 |
| CC(C)[C@H](NC(=O)[C@H](CC(=O)O)NC(=O)CN(C)C(=O)CCCCCNC(=N)N)C(=O)O [6-Guanidinohexanoyl-L-sarcosyl-L-aspartyl-L-valine] | 6.49 | 6.20 | 97 |
| CCCC(C)CN(CC(=O)N[C@@H](CC(=O)O)C(=O)N[C@H](C(=O)O)C(C)C)C(=O)CCCCCNC(=N)N (stereo partly drawn) [6-Guanidinohexanoyl-N-(2-methylpentyl)glycine-L-aspartic acid-L-valine] | < 3.70 | 4.98 | 86 |
| CC(C)[C@H](NC(=O)[C@H](CC(=O)O)NC(=O)CN(C(=O)CCCCCNC(=N)N)C(C)C)C(=O)O [6-Guanidinohexanoyl-N-(2-propyl)glycyl-L-aspartyl-L-valine] | 5.96 | 5.07 | 83 |
| CCN(CC(=O)N[C@@H](CC(=O)O)C(=O)N[C@@H](Cc1c[nH]c2ccccc12)C(=O)O)C(=O)CCCCCNC(=N)N [6-Guanidinohexanoyl-N-(ethyl)glycyl-L-aspartyl-L-tryptophan] | 6.89 | 5.89 | 91 |
| CCN(CC(=O)N[C@@H](CC(=O)O)C(=O)N[C@@H](Cc1ccc(O)cc1)C(=O)O)C(=O)CCCCCNC(=N)N [6-Guanidinohexanoyl-N-(ethyl)glycyl-L-aspartyl-L-tyrosine] | 6.74 | 5.90 | 95 |
| CC(C)[C@H](NC(=O)[C@H](CC(=O)O)NC(=O)CN(Cc1ccccc1)C(=O)CCCCCNC(=N)N)C(=O)O [6-Guanidinohexanoyl-N-benzylglycyl-L-aspartyl-L-valine] | 6.08 | 5.24 | 85 |
